Patent US20260015350A1, “AZAQUINAZOLINE PAN-KRAS INHIBITORS” (Mirati Therapeutics, Inc., priority 2022, published 2026)

Columns and labels:
[1] = test system: KRas-mediated phosphorylation of ERK in H460 cells; assay: Inhibition of KRas-mediated phosphorylation of ERK (Cisbio HTRF pERK), H460 cells; format: cell-based; settings: Homo sapiens; for inhibition at 0.1 µM: NCI-H460, 3 h, single point, 100 nM compound, 3 hrs; for IC50: NCI-H460, HTRF pERK
Procedure, shortened: (§1)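 HTRF readout of phospho-ERK in cell lysates after 3 hrs of compound exposure. Dosing: 10 uM top, 3-fold steps, 10 doses, final DMSO 0.8%. Min control: 0.2 uM Trametinib. Lysis ran 40 mins at 4° C, and antibody detection 2 hrs at room temperature.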

[2] = test system: KRas-mediated phosphorylation of ERK in H727 cells; assay: Inhibition of KRas-mediated phosphorylation of ERK (Cisbio HTRF pERK), H727 cells; format: cell-based; settings: Homo sapiens, NCI-H727, H727 cells; HTRF pERK
Procedure, shortened: as §1

KRas^G12R = biological target: T1, KRas^G12R (Homo sapiens, UniProt P01116, G12R); assay: KRas binding assay (TR-FRET tracer displacement), KRas G12R
T1 construct: Biotinylated KRas (corresponding to amino acids 1-169, produced at Accelegan Inc.); biotin (biotinylated); purchased Accelegan Inc
T1 sequence (P01116 1-169 isoform P01116-2 G12R): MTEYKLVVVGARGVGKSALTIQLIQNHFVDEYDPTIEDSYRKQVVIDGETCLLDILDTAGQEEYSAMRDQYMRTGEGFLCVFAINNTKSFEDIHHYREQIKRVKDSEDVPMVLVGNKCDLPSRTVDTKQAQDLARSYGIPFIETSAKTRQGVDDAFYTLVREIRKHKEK

[3] = test system: KRas-mediated phosphorylation of ERK in MKN1 cells; assay: Inhibition of KRas-mediated phosphorylation of ERK (Cisbio HTRF pERK), MKN1 cells; format: cell-based; settings: Homo sapiens, MKN-1
Procedure, shortened: (§2)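 Phospho-ERK is quantified by HTRF with the Advanced pERK kit. Cells go in at 6,000/well in RPMI plus 10% FBS overnight at 37° C. under 5% CO2, with a 4-hour covered room-temperature incubation ahead of the read.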

[4] = test system: KRas-mediated phosphorylation of ERK in AsPC-1 cells; assay: Inhibition of KRas-mediated phosphorylation of ERK (Cisbio HTRF pERK), AsPC-1 cells; format: cell-based; settings: Homo sapiens, ASPC1, AsPC-1 cells; HTRF pERK
Procedure, shortened: as §1

[5] = test system: KRas-mediated phosphorylation of ERK in HCT116 cells; assay: Inhibition of KRas-mediated phosphorylation of ERK (Cisbio HTRF pERK), HCT116 cells; format: cell-based; settings: Homo sapiens; for inhibition at 0.1 µM: HCT-116, 3 h, single point, 100 nM compound, 3 hrs; for IC50: HCT-116, HTRF pERK
Procedure, shortened: (§3)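 Compound treatment lasts 3 hrs on 6,000 seeded cells, testing 10 doses from a 10 uM top concentration in 3-fold decrements at 0.8% final DMSO. Trametinib at 0.2 uM defines the Min signal. Detection is HTRF on cold-lysed cell extracts.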

[6] = test system: KRas-mediated phosphorylation of ERK in PSN1 cells; assay: Inhibition of KRas-mediated phosphorylation of ERK (Cisbio HTRF pERK), PSN1 cells; format: cell-based; settings: Homo sapiens
Procedure, shortened: as §2

KRas^G12D = biological target: T2, KRas^G12D (Homo sapiens, UniProt P01116, G12D); assay: KRas binding assay (TR-FRET tracer displacement), KRas G12D
T2 construct: Biotinylated KRas (corresponding to amino acids 1-169, produced at Accelegan Inc.); biotin (biotinylated); purchased Accelegan Inc
T2 sequence (P01116 1-169 isoform P01116-2 G12D): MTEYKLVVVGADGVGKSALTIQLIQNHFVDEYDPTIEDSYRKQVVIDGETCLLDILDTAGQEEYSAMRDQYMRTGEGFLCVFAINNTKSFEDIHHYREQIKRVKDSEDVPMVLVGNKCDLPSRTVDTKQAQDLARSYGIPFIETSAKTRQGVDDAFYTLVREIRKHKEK

KRas^G12V = biological target: T3, KRas^G12V (Homo sapiens, UniProt P01116, G12V); assay: KRas binding assay (TR-FRET tracer displacement), KRas G12V
T3 construct: Biotinylated KRas (corresponding to amino acids 1-169, produced at Accelegan Inc.); biotin (biotinylated); purchased Accelegan Inc
T3 sequence (P01116 1-169 isoform P01116-2 G12V): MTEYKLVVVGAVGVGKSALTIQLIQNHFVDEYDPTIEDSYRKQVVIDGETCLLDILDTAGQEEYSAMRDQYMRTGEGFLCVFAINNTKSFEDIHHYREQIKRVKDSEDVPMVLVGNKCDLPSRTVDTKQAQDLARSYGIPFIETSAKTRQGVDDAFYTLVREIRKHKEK

[7] = test system: KRas-mediated phosphorylation of ERK in A549 cells; assay: Inhibition of KRas-mediated phosphorylation of ERK (Cisbio HTRF pERK), A549 cells; format: cell-based; settings: Homo sapiens, HTRF pERK
Procedure, shortened: as §3

| IC50 [2] [nM] | IC50 (KRas^G12R) [nM] | IC50 [3] [nM] | IC50 [4] [nM] | IC50 [6] [nM] | IC50 (KRas^G12D) [nM] | IC50 (KRas^G12V) [nM] | IC50 [7] [nM] | IC50 [5] [nM] | IC50 [1] [nM] | Structure (SMILES) | inhibition at 0.1 µM [1] [%] | inhibition at 0.1 µM [5] [%] |
| --- | --- | --- | --- | --- | --- | --- | --- | --- | --- | --- | --- | --- |
| 1180 | 263 | 1480 | 2020 | > 10000 | 407 | 244 | – | – | – | CCc1c(F)ccc2c(Br)c(O)cc(-c3ncc4c(N5C[C@@H]6C[C@H](C5)[C@H](O)C6)nc(OC[C@@]56CCCN5C[C@H](F)C6)nc4c3F)c12 [Example 537, (1R,5R,6R)-3-(7-(4-bromo-8-ethyl-7-fluoro-3-hydroxynaphthalen-1-yl)-8-fluoro-2-(((2R,7aS)-2-fluorohexahydro-1H-pyrrolizin-7a-yl)methoxy)pyrido[4,3-d]pyrimidin-4-yl)-3-azabicyclo[3.2.1]octan-6-ol] | 29 | 2 |
| 1610 | 354 | 5950 | > 10000 | > 10000 | 1690 | 152 | – | – | – | CCc1c(F)ccc2cc(O)cc(-c3ncc4c(/C=C/c5ccnn5C)nc(OC[C@@]56CCCN5C[C@H](F)C6)nc4c3F)c12 [Example 543, 5-ethyl-6-fluoro-4-(8-fluoro-2-(((2R,7aS)-2-fluorotetrahydro-1H-pyrrolizin-7a(5H)-yl)methoxy)-4-((E)-2-(1-methyl-1H-pyrazol-5-yl)vinyl)pyrido[4,3-d]pyrimidin-7-yl)naphthalen-2-ol] | -1 | 5 |
| 293 | 8 | 645 | 590 | > 10000 | 47 | 14 | 423 | 1370 | – | CCc1c(F)ccc2cc(O)cc(-c3ncc4c(N5CCC6CCC(C6)C5)nc(OC[C@@]56CCCN5C[C@H](F)C6)nc4c3F)c12 (stereo partly drawn) [Example 550, 4-(4-(3-azabicyclo[4.2.1]nonan-3-yl)-8-fluoro-2-(((2R,7aS)-2-fluorotetrahydro-1H-pyrrolizin-7a(5H)-yl)methoxy)pyrido[4,3-d]pyrimidin-7-yl)-5-ethyl-6-fluoronaphthalen-2-ol] | – | – |
| 258 | 2 | 1 | 294 | > 10000 | 5 | 8 | 467 | – | 125 | CCc1c(F)ccc2cc(O)cc(-c3ncc4c(N5CCCO[C@@H](CCO)C5)nc(OC[C@@]56CCCN5C[C@H](F)C6)nc4c3F)c12 [Example 578, 5-ethyl-6-fluoro-4-(8-fluoro-2-(((2R,7aS)-2-fluorohexahydro-1H-pyrrolizin-7a-yl)methoxy)-4-((S)-2-(2-hydroxyethyl)-1,4-oxazepan-4-yl)pyrido[4,3-d]pyrimidin-7-yl)naphthalen-2-ol] | – | – |
| 300 | 7 | 26 | 376 | > 10000 | 14 | 12 | 344 | – | 133 | CCc1c(F)ccc2cc(O)cc(-c3ncc4c(N5CCCOC(CCOC)C5)nc(OC[C@@]56CCCN5C[C@H](F)C6)nc4c3F)c12 (stereo partly drawn) [Example 601, 5-ethyl-6-fluoro-4-(8-fluoro-2-(((2R,7aS)-2-fluorohexahydro-1H-pyrrolizin-7a-yl)methoxy)-4-(2-(2-methoxyethyl)-1,4-oxazepan-4-yl)pyrido[4,3-d]pyrimidin-7-yl)naphthalen-2-ol] | – | – |
| 162 | 3 | 256 | 1320 | > 10000 | 14 | < 2 | 847 | 2410 | – | CCc1c(F)ccc2cc(O)cc(-c3ncc4c(N[C@@H](C)c5cc(C(=O)N(C)C)nn5C)nc(OC[C@@]56CCCN5C[C@H](F)C6)nc4c3F)c12 [Example 650, 5-((S)-1-((7-(8-ethyl-7-fluoro-3-hydroxynaphthalen-1-yl)-8-fluoro-2-(((2R,7aS)-2-fluorohexahydro-1H-pyrrolizin-7a-yl)methoxy)pyrido[4,3-d]pyrimidin-4-yl)amino)ethyl)-N,N,1-trimethyl-1H-pyrazole-3-carboxamide] | – | – |
| 351 | 2 | 5 | 567 | > 10000 | 7 | 6 | 152 | – | – | CCc1c(F)ccc2cc(O)cc(-c3ncc4c(N5CCCC(N6CCCCS6(=O)=O)C5)nc(OC[C@@]56CCCN5C[C@H](F)C6)nc4c3F)c12 (stereo partly drawn) [Example 664, 2-(1-(7-(8-ethyl-7-fluoro-3-hydroxynaphthalen-1-yl)-8-fluoro-2-(((2R,7aS)-2-fluorohexahydro-1H-pyrrolizin-7a-yl)methoxy)pyrido[4,3-d]pyrimidin-4-yl)piperidin-3-yl)-1,2-thiazinane 1,1-dioxide] | – | – |
| 267 | 12 | 188 | 272 | 7860 | 5 | 5 | – | – | – | CCc1c(F)ccc2cc(O)cc(-c3ncc4c(N5CCCCC(n6ccnn6)C5)nc(OC[C@@]56CCCN5C[C@H](F)C6)nc4c3F)c12 (stereo partly drawn) [Example 830, 4-(4-(3-(1H-1,2,3-triazol-1-yl)azepan-1-yl)-8-fluoro-2-(((2R,7aS)-2-fluorotetrahydro-1H-pyrrolizin-7a(5H)-yl)methoxy)pyrido[4,3-d]pyrimidin-7-yl)-5-ethyl-6-fluoronaphthalen-2-ol] | – | – |
| 1030 | 15 | 222 | 508 | > 10000 | 16 | 10 | – | – | – | CCc1c(F)ccc2cc(O)cc(-c3ncc4c(N5CCCC6(CCS6)C5)nc(OC[C@@]56CCCN5C[C@H](F)C6)nc4c3F)c12 (stereo partly drawn) [Example 838, 5-ethyl-6-fluoro-4-(8-fluoro-2-(((2R,7aS)-2-fluorotetrahydro-1H-pyrrolizin-7a(5H)-yl)methoxy)-4-(1-thia-6-azaspiro[3.5]nonan-6-yl)pyrido[4,3-d]pyrimidin-7-yl)naphthalen-2-ol] | – | – |

| Structure (SMILES) | IC50 [2] [nM] | IC50 (KRas^G12R) [nM] | IC50 [3] [nM] | IC50 [4] [nM] | IC50 [6] [nM] | IC50 (KRas^G12D) [nM] | IC50 (KRas^G12V) [nM] | IC50 [7] [nM] | IC50 [5] [nM] | IC50 [1] [nM] | inhibition at 0.1 µM [1] [%] | inhibition at 0.1 µM [5] [%] |
| --- | --- | --- | --- | --- | --- | --- | --- | --- | --- | --- | --- | --- |
| CCc1c(F)ccc2cc(O)cc(-c3ncc4c(N5C[C@H]6CC[C@@H](C5)N6C5CC(F)(F)C5)nc(OC[C@@]56CCCN5C[C@H](F)C6)nc4c3F)c12 [Example 831, 4-(4-((1R,5S)-8-(3,3-difluorocyclobutyl)-3,8-diazabicyclo[3.2.1]octan-3-yl)-8-fluoro-2-(((2R,7aS)-2-fluorotetrahydro-1H-pyrrolizin-7a(5H)-yl)methoxy)pyrido[4,3-d]pyrimidin-7-yl)-5-ethyl-6-fluoronaphthalen-2-ol] | 1080 | 38 | 13 | 331 | > 10000 | 42 | 36 | – | – | – | – | – |
| CCc1c(F)ccc2cc(O)cc(-c3ncc4c(N5CC6CCC(CC6)C5)nc(OC[C@@]56CCCN5C[C@H](F)C6)nc4c3F)c12 [Example 844, 4-(4-(3-azabicyclo[3.2.2]nonan-3-yl)-8-fluoro-2-(((2R,7aS)-2-fluorotetrahydro-1H-pyrrolizin-7a(5H)-yl)methoxy)pyrido[4,3-d]pyrimidin-7-yl)-5-ethyl-6-fluoronaphthalen-2-ol] | 2900 | 46 | 198 | 3330 | > 10000 | 103 | 35 | – | – | – | – | – |
